Measured values from US20120059034A1, “NOVEL CRYSTALLINE HYDRATE, AMORPHOUS AND POLYMORPHIC FORMS OF DIHYDRO-BENZOXAZOLE-6-YL-ACETAMIDE DERIVATIVE AND PROCESSES FOR THEIR PREPARATION” (priority 2009, published 2012).

Experiments:
[1] = Solubility and dissolution rate of solid forms; format: physicochemical
Description: (§1) 1. Characteristic reflections of radiprodil monohydrate are the followings: 4.9, 15.1, 18.1, 26.8 and 30.2±0.2° 2θ 2. Characteristic IR absorption bands of radiprodil monohydrate are the followings: 3644, 1836, 1809, 1789, 1645 and 919±4 cm^−1. 3. Characteristic Raman absorption bands of radiprodil monohydrate are the followings: 2887, 1642, 1484, 1295 and 726±4 cm^−1. […] While the dihydrate Form can be dehydrated relatively easily at elevated temperature, the monohydrate Form is sufficiently stable under such conditions. […] This relative stability of the monohydrate Form compared to the dihydrate Form is advantageous in formulation technological steps involving elevated temperatures.
(§2) 1. There are no reflections on XRPD pattern of radiprodil amorphous form. 2. Characteristic IR absorption bands of radiprodil amorphous form are the followings: 3275, 1768, 1685, 1219 and 544±4 cm^−1. 3. Characteristic Raman absorption bands of radiprodil amorphous are the followings: 3071, 1687, 1640, 1414, 1280 and 852±4 cm^−1. […] One particular advantage of the discovered amorphous Form is that it is relatively stable.

[2] = Storage stability of the amorphous form against crystallization; format: physicochemical; conditions: normal laboratory conditions, several months
Excerpt: as §2

[3] = Pharmacokinetic profile in dogs (plasma concentrations by validated HPLC(UV) method); format: in vivo; conditions: 5 mg/kg dose adjusted to the anhydrous active substance, plasma samples up to 24 hours post dose
Description: Another essential value of the dihydrate Form is the observed better pharmacokinetic profile in dogs compared to the anhydrate Form A. Both forms in 5 mg/kg dose adjusted to the anhydrous active substance were administered to dogs and relevant pharmacokinetic parameters (AUC, Cmax) were calculated from the plasma profiles of the individual animals. The animals were […] seventeen hours before and six hours after drug administration. Plasma concentrations were measured in the trial samples taken up to 24 hours post dose by a validated HPLC(UV) method.

[4] = Relative thermodynamic stability, conversion of solid forms in suspension; format: physicochemical; conditions: room temperature
Description: (§3) (IV) a DSC trace substantially in accordance with FIG. 5; • Characteristic diffraction and spectroscopic data of radiprodil anhydrate Form A are as follows: 1. Characteristic XRPD reflections of radiprodil anhydrate Form A are the following: 7.8, 22.0, 23.7, 27.0 and 27.6±0.2° 2 θ 2. Characteristic IR absorption bands of radiprodil anhydrate Form A are the following: 3295, 2863, 1852, 1768, 1058 and 635±4 cm^−1. 3. Characteristic Raman absorption bands of radiprodil anhydrate Form A are the following: 3106, 1680, 1641, 1470, 1274 and 507±4 cm^−1. […] All the other discovered solid forms can be converted to anhydrate Form A in suspension. This conversion takes place in absolute ethanol or in ethanol:water mixtures within a few hours. This relative stability advantage of anhydrous Form A of radiprodil can be favorably utilized in the development of active ingredient as well as dosage forms that are sufficiently stable both chemically and physically during extended shelf life. […] Due to its physical stability and non-hygroscopic character this polymorphic form is particularly advantageous in dosage formulation processes where the active ingredient is exposed to water during the process, such as wet granulation.

[5] = Stress stability of the solid form (chemical impurities and physical form); format: physicochemical; conditions: stress conditions 25° C./75% RH; 50° C.; 50° C./oxygen; 50° C./75% RH; 50° C./90% RH; 75° C.; 75° C./oxygen, 10 days
Description: as §3

[6] = Hygroscopicity, weight gain at elevated humidity; format: physicochemical; conditions: 50° C./90% RH, 10 days
Description: as §3

[7] = Thermal stability, loss of water of hydration at 50° C. in N2 atmosphere; format: physicochemical
Description: as §1

O=C(Nc1ccc2[nH]c(=O)oc2c1)C(=O)N1CCC(Cc2ccc(F)cc2)CC1 [amorphous Form, 2-[4-(4-Fluorobenzyl)-piperidin-1-yl]-2-oxo-N-(2-oxo-2,3-dihydro-benzoxazol-6-yl)-acetamide amorphous form]
dissolution rate among the solid forms [1]: largest | solubility among the solid forms [1]: largest | crystallization on storage [2]: without crystallization

O=C(Nc1ccc2[nH]c(=O)oc2c1)C(=O)N1CCC(Cc2ccc(F)cc2)CC1 [anhydrate Form A, 2-[4-(4-Fluorobenzyl)-piperidin-1-yl]-2-oxo-N-(2-oxo-2,3-dihydro-benzoxazol-6-yl)-acetamide anhydrate Form A]
AUC24 [3]: 1.554 µg·h/mL | Cmax [3]: 0.125 µg/mL | thermodynamic stability among the discovered forms [4]: thermodynamically most stable form | change of sum of chemical impurities and of physical form compared to the starting material [5]: neither the sum of chemical impurities nor the physical form has changed | weight gain (hygroscopicity) [6]: did not show measurable weight gain

O=C(Nc1ccc2[nH]c(=O)oc2c1)C(=O)N1CCC(Cc2ccc(F)cc2)CC1 [dihydrate Form, 2-[4-(4-Fluorobenzyl)-piperidin-1-yl]-2-oxo-N-(2-oxo-2,3-dihydro-benzoxazol-6-yl)-acetamide dihydrate]
AUC24 ([3]; dihydrate): 4.491 µg·h/mL | Cmax ([3]; dihydrate): 0.395 µg/mL | time to loss of water of hydration [7]: 2 h

O=C(Nc1ccc2[nH]c(=O)oc2c1)C(=O)N1CCC(Cc2ccc(F)cc2)CC1 [monohydrate Form, 2-[4-(4-Fluorobenzyl)-piperidin-1-yl]-2-oxo-N-(2-oxo-2,3-dihydro-benzoxazol-6-yl)-acetamide monohydrate]
weight loss (water of hydration) ([7]; same conditions as dihydrate Form (2 hours)): does not show detectable weight loss | solubility compared to anhydrate Form A [1]: greater solubility
